Test results as given in patent US8618082B2, “Lupeol anti-tumor agent and uses thereof” (Wisconsin Alumni Research Foundation, priority 2004, dated 2013).
Entries after “also recorded” stand apart in the source; their conditions may differ.

Assays:
[1] = tested on: epidermal iNOS protein; assay: TPA-induced epidermal iNOS protein expression (western blot); type: in vivo, mouse
Description: FIG. 4. Inhibitory effect of Lupeol on TPA-induced epidermal ODC, iNOS and COX-2 protein expression in CD-1 mice: At different times after treatment, the animals were sacrificed, epidermal protein lysate was prepared, and ODC and COX-2 protein expression were determined. Equal loading of protein was confirmed by stripping the immunoblot and reprobing it for β-actin. The immunoblots shown here are representative of three independent experiments with similar results. The values above each lane indicate relative density of the band normalized to β-actin.
(§1) The animals were shaved on the dorsal side of the skin, divided into four groups and treated topically on the shaved area with either 0.4 ml vehicle (acetone), or TPA (3.2 nmol/0.4 ml acetone/animal, v/v), or Lupeol (1 or 2 mg/0.2 ml acetone/animal, w/v) followed 30 min later with TPA (3.2 nmol/0.2 ml acetone/animal). Animals were sacrificed at different times point i.e. 6, 12, 24 and 48 h post TPA treatment. […]
(§2) Epidermis from the whole skin was separated as described earlier (Katiyar et al., 1999) and was homogenized in ice-cold lysis buffer [50 mM Tris-HCl, 150 mM NaCl, 1 mM EGTA, 1 mM EDTA, 20 mM NaF, 100 mM Na3VO4, 0.5% NP-40, 1% Triton X-100, 1 mM PMSF (pH 7.4)] with freshly added protease inhibitor cocktail, Protease Inhibitor Cocktail Set III (Calbiochem, La Jolla, Calif., USA). […] The protein content in the lysates was measured by DC BioRad assay (BioRad Laboratories, Hercules, Calif.) as per the manufacturer's protocol.
For western blot analysis, 40 μg of the protein was resolved over 8-12% polyacrylamide gels and transferred to a nitrocellulose membrane. […] This was followed by incubation with anti-mouse or anti-rabbit secondary antibody horse-radish peroxidase (Amersham Life Sciences, Inc., USA) for 1 h and then washed several times and detected by chemiluminescence ECL kit, (Amersham Life Sciences, Inc., USA) and autoradiography using XAR-5 film obtained from Eastman Kodak Co. (Rochester, N.Y., USA). […]

[2] = tested on: IKKα protein; assay: TPA-induced activation of IKKα (western blot); type: in vivo, mouse; settings: highest dose of Lupeol, 12 h time point
Description: FIG. 6. Inhibitory effect of Lupeol on TPA-induced activation of IKKα, and phosphorylation and degradation of IκBα in CD-1 mice: At different times after treatment, the animals were sacrificed, epidermal cytosolic was prepared, and protein expression was determined. Equal loading was confirmed by stripping the immunoblot and reprobing it for β-actin. The immunoblots shown here are representative of three independent experiments with similar results. The values above each lane indicate relative density of the band normalized to β-actin.
as §1, with “acetone/animal).” for “acetone/animal). Animals were sacrificed at different times point i.e. 6, 12, 24 and 48 h post TPA treatment.”
as §2, with “protocol. […]” for “protocol.”

[3] = tested on: LNCaP cells; assay: Apoptosis in LNCaP cells by flow cytometry; type: cell-based, human; settings: Lupeol 5-30 μM
Description: FIG. 11 depicts quantitative representation of Lupeol induced apoptosis in LNCaP cells as assessed by flow cytometry. Cells were treated with Lupeol (5-30 μM). Cells showing fluorescence above that of control population, as indicated by the line in each histogram, are considered as apoptotic cells. The images shown here are representative of independent experiments with similar results. The values shown inside each graph indicates percent apoptotic cells.

C=C(C)[C@@H]1CC[C@]2(C)CC[C@]3(C)[C@H](CC[C@@H]4[C@@]5(C)CC[C@H](O)C(C)(C)[C@@H]5CC[C@]43C)[C@@H]12 [Lupeol, Lup-20(29)-en-3β-ol]
inhibition against TPA-induced epidermal iNOS protein expression (densitometry) ([1]; Lupeol 2 mg/animal): 74%
epidermal iNOS protein expression after Lupeol alone ([1]; Lupeol alone 2 mg): did not produce any change
inhibition in TPA induced activation of IKKα protein [2]: ~95%
induction of apoptosis in LNCaP cells [3]: due to apoptosis; also recorded: inducing apoptosis
